“Also recorded” adds a separate entry of the source. One block for each compound: values may come before it.
Legend:
site IQ = assay: ROS production with NADH and cytochrome b566 reduction states, mitochondria respiring on CI substrates; format: biochemical, rat; conditions: 2.5 uM, ATP synthesis restricted
Excerpt: The contribution of site IQ to total ROS production under “normal” circumstances (e.g. when electrons enter CI primarily in the forward direction) remains contentious. […] A possible explanation for this difference is the leak of electrons from site IQ as both Q-pool reduction and PMF remained high in the absence of energy production. To test if site IQ is indeed active under such conditions, we used Compound No. 4 to non-invasively probe mitochondrial ROS production in this system. […] It is believed that even under extreme conditions in which forward electron flow through CI dominates, this provides evidence that site IQ can be a relevant source of ROS.
The rate of ROS production from site IF is linked to the reduction state of the NAD(P)H pool in the mitochondrial matrix (Treberg et al., 2011; Quinlan et al, submitted). Therefore, to evaluate the mechanism of action of putative IF ROS inhibitors, the effect of candidate compounds on the relationship between site IF ROS production and NAD(P)H reduction was tested. NAD(P)H reduction was monitored in isolated mitochondria (0.3 mg/mL) on a Varian Cary Eclipse fluorimeter (ex 365/em 450 nm) as described by Treberg et al., 2011 except the reduction state was slowly titrated with increasing rotenone (0.08 to 4 uM) in the presence of saturating malate (5 mM) and the uncoupler FCCP. Glutamate (5 mM) was added to achieve 100% reduction. […]

site IF = molecular target: T1, site IF (Rattus norvegicus, UniProt Q5XIH3); assay: Relationship of site IF ROS production to steady state matrix NAD(P)H reduction; format: biochemical; conditions: high NADH reduction (>90%)
T1 construct: freshly isolated muscle mitochondria were assayed; from tissue; host or cells: rat skeletal muscle mitochondria (Wistar, Harlan Laboratories)
Description: The rate of ROS production from site IF is linked to the reduction state of the NAD(P)H pool in the mitochondrial matrix (Treberg et al., 2011; Quinlan et al, submitted). Therefore, to evaluate the mechanism of action of putative IF ROS inhibitors, the effect of candidate compounds on the relationship between site IF ROS production and NAD(P)H reduction was tested.

mitochondrial GPDH = molecular target: T2, mitochondrial GPDH (Rattus norvegicus, UniProt P35571); assay: Mitochondrial GPDH activity (DCPIP reduction); format: biochemical
T2 construct: The activity of GPDH in intact mitochondria (0.3 mg/mL) was measured; from tissue; host or cells: rat skeletal muscle mitochondria (Wistar, Harlan Laboratories)
T2 sequence (P35571 43-727): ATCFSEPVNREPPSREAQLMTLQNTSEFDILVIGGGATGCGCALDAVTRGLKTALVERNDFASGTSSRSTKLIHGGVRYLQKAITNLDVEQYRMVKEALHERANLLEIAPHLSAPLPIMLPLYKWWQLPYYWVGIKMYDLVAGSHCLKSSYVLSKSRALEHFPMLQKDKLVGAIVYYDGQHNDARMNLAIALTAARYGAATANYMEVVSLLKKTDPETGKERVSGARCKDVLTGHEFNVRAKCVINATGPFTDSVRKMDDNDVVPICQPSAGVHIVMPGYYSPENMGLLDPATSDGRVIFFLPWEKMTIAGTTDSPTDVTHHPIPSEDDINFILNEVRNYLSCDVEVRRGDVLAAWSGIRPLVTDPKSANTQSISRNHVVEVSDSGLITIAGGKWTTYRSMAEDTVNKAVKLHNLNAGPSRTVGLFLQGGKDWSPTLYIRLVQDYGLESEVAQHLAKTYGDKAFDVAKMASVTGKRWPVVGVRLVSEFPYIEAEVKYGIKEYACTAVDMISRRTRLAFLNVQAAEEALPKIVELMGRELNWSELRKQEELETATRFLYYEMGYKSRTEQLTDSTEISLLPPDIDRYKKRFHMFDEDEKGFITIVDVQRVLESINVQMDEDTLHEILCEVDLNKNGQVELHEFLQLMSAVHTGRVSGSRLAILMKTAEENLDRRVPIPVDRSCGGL

T1 sequence (Q5XIH3 21-464 limits assumed): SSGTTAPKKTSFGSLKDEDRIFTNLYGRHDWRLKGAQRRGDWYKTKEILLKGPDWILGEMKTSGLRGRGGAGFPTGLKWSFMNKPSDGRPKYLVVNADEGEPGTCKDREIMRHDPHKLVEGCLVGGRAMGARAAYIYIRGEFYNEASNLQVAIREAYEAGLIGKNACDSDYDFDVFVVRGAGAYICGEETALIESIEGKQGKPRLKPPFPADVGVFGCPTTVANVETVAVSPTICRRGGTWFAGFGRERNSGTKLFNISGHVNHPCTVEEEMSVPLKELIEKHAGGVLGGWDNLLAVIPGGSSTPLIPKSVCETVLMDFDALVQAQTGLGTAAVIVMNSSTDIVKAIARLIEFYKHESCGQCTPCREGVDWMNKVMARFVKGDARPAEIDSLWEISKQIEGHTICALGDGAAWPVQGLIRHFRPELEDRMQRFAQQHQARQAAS

Structure (SMILES): O=[N+]([O-])c1ccc(Oc2ccc(S(=O)(=O)NC3CCCCC3)cc2)cc1 [Compound 4]
- observed ROS production and NADH / b566 reduction states (site IQ): lowered the observed ROS production without any changes to the NADH or b566 reduction states

Structure (SMILES): Cc1ccc(C)c(CN(CCCN(C)C)CCCN(C)C)c1 [Compound 32]
- ROS production from site IF in relation to NADH reduction (site IF): lowers the amount of ROS production from site IF as the matrix NADH pool becomes strongly reduced; also recorded: the expected ROS production was suppressed

- kinetics of inhibition of GPDH activity (mitochondrial GPDH): mixed inhibition kinetics
- potency at inhibiting GPDH activity relative to Compound No. 46 (mitochondrial GPDH): at least 6 times
Structure (SMILES): O=C(O)CCC(=O)Nc1ccc(-c2nc3cc4ccccc4cc3[nH]2)cc1 [Compound 61]
